Tests used:
[1] = Accelerated stress test at 40° C./75% RH (physical stability by powder X-ray diffraction and visual control of consistency); format: physicochemical
Method: Powder X-ray diffraction was performed with a PANalytical X'Pert PRO diffractometer equipped with a theta/theta coupled goniometer in transmission geometry, Cu-Kalpha1,2 radiation (wavelength 0.15419 nm) with a focusing mirror and a solid state PIXcel detector. Diffractograms were recorded at a tube voltage of 45 kV and a tube current of 40 mA, applying a stepsize of 0.013° 2-Theta with 40 s per step (255 channels) in the angular range of 2° to 40° 2-Theta at ambient conditions.
Example 2: Accelerated Stress Test at 40° C./75% RH With Solid Dispersions Comprising Amorphous Elagolix Sodium and at Least One Silicon-Based Inorganic Compound in a 1:1 Weight Ratio vs. Neat Elagolix Sodium
The physical stability against moisture and temperature stress has been tested for different solid dispersions comprising amorphous elagolix sodium and at least one silicon-based inorganic compound and for neat amorphous elagolix. For this purpose, the solid dispersions were stored open at accelerated stress conditions of 40° C. and 75% RH for 1, 3 and 6 weeks respectively. The physical stability has been investigated by means of powder X-ray diffraction and the consistency of the samples was visually controlled.

[2] = Behaviour of elagolix sodium upon moisture contact (hygroscopicity, deliquescence); format: physicochemical; settings: no further conditions given
Text: Said properties require special care and precautionary measures such as a controlled atmosphere during pharmaceutical processing, which renders manufacturing cumbersome and expensive. […] Such formulations may negatively influence patients' compliance, in particular for elderly people having troubles swallowing.
As used herein the term “deliquescent” means the property of a solid form of a compound to readily absorb moisture form the surrounding atmosphere until it deliquesces and forms a solution upon storage for 14 days at 40° C., atmospheric pressure and 75% relative humidity.

COc1cccc(-c2c(C)n(Cc3c(F)cccc3C(F)(F)F)c(=O)n(C[C@H](NCCCC(=O)O)c3ccccc3)c2=O)c1F [elagolix Na, 4-[[(1R)-2-[5-(2-fluoro-3-methoxyphenyl)-3-[[2-fluoro-6-(trifluoromethyl)phenyl]methyl]-3,6-dihydro-4-methyl-2,6-dioxo-1(2H)-pyrimidinyl]-1-phenylethyl]amino]butanoic acid]
consistency / deliquescence during the stress test ([1]; accelerated stress conditions of 40° C. and 75% RH, up to 6 weeks): deliquesced fairly quickly
Initial sample ([1]; solid state and consistency before storage, PXRD and visual control): amorphous solid
1 week at 40° C./75% RH ([1]; stored open, 1 week, 40° C., 75% RH, PXRD and visual control): deliquescence
hygroscopicity / deliquescence upon moisture contact ([2]; listed as elagolix sodium): highly hygroscopic
hygroscopicity / deliquescence upon moisture contact ([2]; listed as neat amorphous elagolix sodium): deliquesces fairly quickly

From US10966979B2 (Sandoz AG, priority 2017, dated 2021)
